According to US20110009264A1, “HERBICIDAL COMBINATION” (Bayer CropScience AG, priority 2007, published 2011):

What was measured:
[1] = system: Polygonum convolvulus; experiment: Post-emergence action against weeds, greenhouse, visual scoring of control; format: in vivo; details: 11 days after application
Experimental: (§1) Seeds or rhizome pieces of monocotyledonous and dicotyledonous weeds were placed in sandy loam soil in plastic pots, covered with soil and cultivated in a greenhouse under good growth conditions. Three weeks after sowing, the test plants were treated at the 2- to 4-leaf stage. The compounds according to the invention, formulated as wettable powders or as emulsion concentrates, were sprayed onto the green parts of the plants in various dosages at a water application rate of 100 to 800 l/ha (converted).
(§2) 0%=no control 100%=complete control

[2] = system: Veronica persica; experiment: as above; format: in vivo; details: 11 days after application
Experimental: as §1, with “(converted). After the test plants had been left to stand in the greenhouse for 10 to 28 days under optimum growth conditions, the effect of the preparations was scored visually in comparison to untreated controls.” for “(converted).”
as §2

COc1c(Cl)ccc(Cl)c1C(=O)O [Compound B1-1, dicamba]
Polygonum convolvulus Control in % ([1]; 100 g of ai/ha): 40%

O=C(O)c1nc(Cl)ccc1Cl [Compound B2-1, clopyralid]
Veronica persica Control in % ([2]; 50 g of ai/ha): 0%

Nc1c(Cl)c(F)nc(OCC(=O)O)c1Cl [Compound B2-2, fluoroxypyr]
Veronica persica Control in % ([2]; 80 g of ai/ha): 60%

Nc1c(Cl)c(Cl)nc(C(=O)O)c1Cl [Compound B2-4, picloram]
Polygonum convolvulus Control in % ([1]; 80 g of ai/ha): 20%

Nc1nc(C2CC2)nc(C(=O)[O-])c1Cl.[K+] [Compound B6-1, aminocyclopyrachlor]
Polygonum convolvulus Control in % ([1]; 25 g of ai/ha): 60%

sodium salt of 2-iodo-N-[(4-methoxy-6-methyl-1,3,5-triazin-2-yl)carbamoyl]benzenesulfonamide [Compound A-2]
Veronica persica Control in % ([2]; 2.5 g of ai/ha, 0%=no control, 100%=complete control): 0%
